For test [1], the target named is T1, H3R (Homo sapiens, UniProt Q9Y5N1).
T1 construct: expressed in transfected cells
As to the kind of experiment: CRE-driven luciferase reporter gene assay in HEK-293 cells stably expressing hH3R. The format is cell-based. On the procedure:
A, Concentration inhibition curve of luciferase activity induced by ZEL-H16 with forskolin stimulation. […] C. […] The presented data points are the mean ±SE of triplicate values from a single experiment and are representative of three to six separate experiments (*p<0.05; **p<0.01).
Luciferase activity was detected using a firefly luciferase kit (Promega, Madison, WI). When required, cells were treated overnight with or without PTX (100 ng/ml) in serum-free DMEM before the experiment.

Test [2] has as its target T1, H3R. As to the kind of experiment: ERK1/2 phosphorylation (Western blot) in HEK-293 cells stably expressing H3R. The format is cell-based. On the procedure:
Figure 7 Phosphorylation of ERK1/2 induced by ZEL-H16 in H3R-expressing HEK-293 cells. […] Signals were quantified by densitometric image analysis and p-ERK was normalized to a loading control (ERK). […] Concentration -dependent phosphorylation signals were quantified by densitometric analysis and p-ERK levels were normalized to total ERK levels. […] C, The phosphorylation of ERK1/2 induced by ZEL-H16 could be entirely abolished by co-incubation with H3R antagonist thioperamide (***p<0.001). Data represent the mean ±SE of three independent experiments.
HEK-293 cells stably expressing human H3R were grown in a 6-well plate and were serum starved 2 h in serum-free culture medium prior to stimulation. Cells were stimulated with the indicated H3R ligands at the designated concentrations. Incubations were stopped at the indicated times by removing the stimulation medium by aspiration. The cells were washed in ice-cold PBS and subsequently lysed in 100 µl of lysis buffer [20 mM HEPES (pH 7.5), 10 mM EDTA, 150 mM NaCl, 1% Triton X-100, and one tablet of complete protease inhibitor (Roche, Indianapolis, IN) per 50 mL] at 4°C on a rocker for 30 min. The lysates were centrifuged and separated by sodium dodecyl sulfate-polyacrylamide (12%) gel electrophoresis (SDS-PAGE) and blotted onto polyvinylidene difluoride membranes. Membranes were blocked for 1 h at room temperature in TBST (10 mmol/L Tris, 150 mmol/L NaCl, 0.1% Tween-20, pH 8.0) buffer containing 5% (v/w) skim milk. Membranes were probed overnight with primary antibodies against p-ERK1/2 (1∶1,000; Cell Signaling, Danvers, MA) in TBST containing 5% (v/w) BSA, and then probed with horseradish peroxidase-labeled secondary antibody (1∶5,000) for 1 h at room temperature in TBST containing 5% (v/w) milk powder. Immunoreactivity was detected by ECL assays. The blots were stripped and reprobed using antibodies against total ERK1/2 (1∶2,000) (Cell Signaling, Danvers, MA) as a control.

For the next test, the target named is T2, hH4R (Homo sapiens, UniProt Q9H3N8).
T2 construct: expressed in transfected cells
As to the kind of experiment: CRE-driven luciferase activity in HEK-293 cells stably expressing hH4R. In kind it is cell-based. The source says: (§1) Figure 3 The selectivity of ZEL-H16 for hH3R in intracellular Ca^2+ flux assay and CRE-luciferase transcription assay. A–C, Intracellular Ca^2+ flux or CRE-driven luciferase activity induced by ZEL-H16 in HEK-293 cells stably expressing hH1R (A), hH2R (B), or hH4R (C). […] The presented data points are the mean ±SE of triplicate values from a single experiment and are representative of three separate experiments. Statistical analysis between ZEL-H16 added or not added for each concentration point in the kinetic graph was done using a t-test (PRISM software). G, Relative expression of hH1R, hH2R, hH3R and hH4R on transfected HEK-293 cells by ELISA quantification for Flag-tagged cell-surface receptors (***p<0.001, compared to non-transfected HEK 293 cells).
(§2) Stable HEK-293 cells co-transfected with H3R and pCRE-Luc were seeded in a 48-well plate overnight and were grown to […] confluence. […] Luciferase activity was detected using a firefly luciferase kit (Promega, Madison, WI). When required, cells were treated overnight with or without PTX (100 ng/ml) in serum-free DMEM before the experiment.

In test [3] the target is T1, H3R. As to the kind of experiment: H3R internalization, cell-surface ELISA in HEK-293 cells stably transfected with Flag-H3R. In kind it is cell-based. As to conditions: 100 µM, 45 min at 37°C. On the procedure:
ELISA data are expressed as the percentage of receptors detected on the surface of agonist-untreated cells expressing H3R. Error bars represent the SEM for four replicates.
The cell surface expression of H3R was quantitatively assessed by ELISA and performed as described previously. Briefly, HEK-293 cells stably transfected with the pCMV-H3R construct were seeded in 48-well dishes coated with poly-L-lysine. […] Medium was aspirated and the cells were washed once with Tris-buffered saline (TBS). […] Cells were then incubated for 1 h with an alkaline phosphatase-conjugated monoclonal antibody directed against the Flag epitope and diluted 1∶1,000. Cells were washed 3 times, and antibody binding was visualized by adding 0.25 mL of an alkaline phosphatase substrate (Bio-Rad). Development was stopped by adding 0.1 mL of the substrate to a 96-well microtiter plate containing 0.1 mL of 0.4 M NaOH.
A general note: In an ELISA, binding on a coated surface is turned into a signal by an enzyme label.

Another test concerns the target T3, hH2R (Homo sapiens, UniProt P25021).
T3 construct: expressed in transfected cells
The test is described as follows: CRE-driven luciferase activity in HEK-293 cells stably expressing hH2R. In kind it is cell-based.
From the text: as §1, §2

Test [4] has as its target T4, human histamine H3 receptor (Homo sapiens, UniProt Q9Y5N1).
T4 construct: expressed in transfected cells
As to the kind of experiment: Competitive/saturation binding with [3H]N-α-methylhistamine, H3R/HEK-293 cell membranes. The protocol: Figure 4 Competition binding experiments with [^3H]-N-α-methylhistamine. […] The presented data are the means ±SE of values from a single experiment performed in duplicate and are representative of three to six separate experiments.
HEK-293 cells stably expressing H3R were harvested and resuspended in ice-cold 50 mM Tris-HCl (pH 7.4) containing a complete protease inhibitor cocktail tablet and mixed by inverting. The cell pellet was homogenized with a Polytron PT 1200 set at 4000 rpm and centrifuged at 1,000 g for 5 min. The supernatant was then centrifuged twice at 50,000 g for 30 min at 4°C. Finally, the resulting pellet was gently suspended in 50 mM Tris-HCl (pH 7.4) buffer and the membrane concentration was determined using Bio-Rad protein assays.
The membranes (50 µg of protein) were incubated with [^3H] N-α-methylhistamine at various concentrations (from 0.03 nM to 50 nM) for saturation binding assays. For competitive binding assays, the membranes (50 µg of protein) were incubated with 10 nM [^3H] N-α-methylhistamine for recombinant hH3R or 2nM [^3H] N-α-methylhistamine for rat brain H3R in the presence of various compound concentrations in the buffer (50 mM Tris–HCl, pH 7.4). […] Following three washes, the membrane-bound radioactivity was measured on a Topcount (PerkinElmer) at 20°C. […] IC50 values were converted to Ki values using the Cheng-Prusoff equation. Each experiment was performed in duplicate and repeated three to six times. All data were analyzed by nonline arregression using GraphPad Prism version 4.0 software.

T1 sequence (Q9Y5N1 whole entry): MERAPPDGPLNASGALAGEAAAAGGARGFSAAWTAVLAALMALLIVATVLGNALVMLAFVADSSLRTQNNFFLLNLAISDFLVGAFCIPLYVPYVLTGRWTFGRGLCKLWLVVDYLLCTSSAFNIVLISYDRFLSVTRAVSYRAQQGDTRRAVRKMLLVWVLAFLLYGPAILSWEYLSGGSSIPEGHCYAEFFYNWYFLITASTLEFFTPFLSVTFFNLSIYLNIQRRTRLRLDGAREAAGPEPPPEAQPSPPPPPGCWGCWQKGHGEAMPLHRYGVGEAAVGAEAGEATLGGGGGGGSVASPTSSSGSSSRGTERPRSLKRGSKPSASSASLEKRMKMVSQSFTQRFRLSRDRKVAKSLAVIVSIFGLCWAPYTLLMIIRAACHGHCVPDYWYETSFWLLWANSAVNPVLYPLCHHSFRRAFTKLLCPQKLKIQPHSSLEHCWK
T2 sequence (Q9H3N8 whole entry): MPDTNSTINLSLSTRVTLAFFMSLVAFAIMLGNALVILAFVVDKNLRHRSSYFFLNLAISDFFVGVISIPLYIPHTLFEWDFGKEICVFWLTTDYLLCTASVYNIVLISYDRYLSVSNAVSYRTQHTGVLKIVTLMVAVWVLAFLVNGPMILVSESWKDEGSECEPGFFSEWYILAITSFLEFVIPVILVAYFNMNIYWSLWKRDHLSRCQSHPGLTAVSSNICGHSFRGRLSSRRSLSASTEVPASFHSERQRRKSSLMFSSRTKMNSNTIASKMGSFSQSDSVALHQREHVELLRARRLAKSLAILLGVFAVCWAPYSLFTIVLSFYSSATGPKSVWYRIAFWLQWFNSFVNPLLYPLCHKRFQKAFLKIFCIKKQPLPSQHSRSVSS
T4 sequence (Q9Y5N1 whole entry): as the sequence (Q9Y5N1 whole entry) above
T3 sequence (P25021 whole entry): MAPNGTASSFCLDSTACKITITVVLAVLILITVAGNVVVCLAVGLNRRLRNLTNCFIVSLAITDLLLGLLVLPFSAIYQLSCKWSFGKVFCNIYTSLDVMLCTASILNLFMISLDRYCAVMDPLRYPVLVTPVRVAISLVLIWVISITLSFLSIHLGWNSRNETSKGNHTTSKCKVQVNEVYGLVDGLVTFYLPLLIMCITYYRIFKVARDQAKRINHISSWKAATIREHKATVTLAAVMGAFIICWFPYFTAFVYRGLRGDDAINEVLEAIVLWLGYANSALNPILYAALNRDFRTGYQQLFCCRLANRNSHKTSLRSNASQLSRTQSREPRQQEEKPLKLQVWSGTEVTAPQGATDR

On H3R [1] (HEK293), `c1ccc2c(c1)c(CCCN1CCCCC1)cn2CCCN1CCCCC1` [ZEL-H16] came in with an Emax of 61 ± 3.2%. For the same compound, on H3R [1] (agonist curves in the presence of 30 nM, 300 nM or 1 µM thioperamide), the Schild slope was found to be 1.140±0.168. The EC50 was 4.36 ± 1.39 nM at H3R [1] (inhibition of forskolin-induced luciferase activity, Mean ± SEM, n = 6) and 1100 ± 100 nM on H3R [2] (10 nM to 100 µM, Western-blot densitometry). In addition, the “time of maximal ERK1/2 activation after stimulation” value at H3R [2] (1 µM) is on record as 2 min. Moreover, on H3R [2] (HEK293, read-out: maximal activation of ERK1/2 relative to maximal activation induced by histamine, 1 µM), the Emax at 1 µM was roughly 50%. Also, the “antagonist activity: influence on luciferase activity curves induced by histamine” value on hH4R (ZEL-H16 added to histamine) and on hH2R (ZEL-H16 added to histamine) was “did not significantly change the luciferase activity curves” in each case. Moreover, the “agonist activity: luciferase activity after stimulation” value on hH4R (ZEL-H16 alone) and at hH2R (ZEL-H16 alone) was “no significant responses” throughout. Also, the “loss in the expression of the receptors on the cell surface (internalization)” value on H3R [3] is given as 50%. Besides, the inhibition constant (Ki) in test [4] (10 nM [3H]N-α-methylhistamine, H3R/HEK-293 membranes, read-out: Ki) stood at 2.07 ± 0.8 nM. Further, the “affinity for human H3R as compared to histamine” value in test [4] (higher affinity than histamine) was “approximately 20 fold”.

Broadly, the EC50 is the concentration at which the effect is half-maximal. A lower EC50 goes with an effect from little substance. One may read the Ki as a measure of affinity in units of concentration, obtained from inhibition or displacement.

These data come from PMC3411647 (PLoS ONE, 2012).
